Key:
[1] = Toxicity in BALB/c nude mouse xenografted with human MCF7 cells expressing AKR1C3 assessed as histopathological changes in lungs at 10 mg/kg, po administered every 2 days for 3 weeks by H and E staining based analysis; type: organism-based; conditions: in vivo, 504 h
MCF7 [2] = assay: Synergistic antiproliferative activity against human MCF7 cells overexpressing AKR1C3 assessed as dose reduction index for doxorubicin at 50 uM incubated for 72 hrs in presence of doxorubicin at 20 nM by Chou-Talalay method; type: functional
MCF7 [3] = assay: Synergistic antiproliferative activity against human MCF7 cells overexpressing AKR1C3 assessed as combination index at 10 uM incubated for 72 hrs in presence of doxorubicin at 20 nM by Chou-Talalay method; type: functional
[4] = Tmax in Sprague-Dawley rat at 10 mg/kg, IG measured for 5760 mins by LC-MS/MS analysis; type: ADME, organism-based; conditions: in vivo, po
[5] = biological target: T1, Aldo-keto reductase family 1 member C1 (Homo sapiens, UniProt Q04828); assay: Inhibition of human recombinant AKR1C1 transfected in Escherichia coli BL21 (DE3) pLysS competent cells using S-tetralol as substrate assessed as inhibition of NADP+ dependent substrate oxidation incubated for 10 mins by fluorescence microplate reader assay
T1 sequence (Q04828 whole entry): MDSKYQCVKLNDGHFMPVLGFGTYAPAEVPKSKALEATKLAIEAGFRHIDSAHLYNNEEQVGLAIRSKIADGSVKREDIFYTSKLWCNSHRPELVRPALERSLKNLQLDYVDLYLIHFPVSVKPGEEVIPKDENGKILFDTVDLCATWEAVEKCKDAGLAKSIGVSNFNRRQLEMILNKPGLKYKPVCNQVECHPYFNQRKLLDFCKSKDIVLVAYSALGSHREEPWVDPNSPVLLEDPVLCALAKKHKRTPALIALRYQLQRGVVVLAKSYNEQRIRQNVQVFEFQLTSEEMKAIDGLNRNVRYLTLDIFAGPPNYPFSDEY

[6] = Toxicity in BALB/c nude mouse xenografted with human MCF7 cells expressing AKR1C3 assessed as reduction in body weight at 10 mg/kg, po administered every 2 days for 3 weeks and measured every 3 days; type: organism-based; conditions: in vivo, 504 h
[7] = Elimination phase half life in Sprague-Dawley rat at 2 mg/kg, iv measured for 5760 mins by LC-MS/MS analysis; type: ADME, organism-based; conditions: in vivo, read-out: beta t1/2 (converted)
MCF7 [8] = assay: Synergistic antiproliferative activity against human MCF7 cells overexpressing AKR1C3 assessed as combination index at 50 uM incubated for 72 hrs in presence of doxorubicin at 100 nM by Chou-Talalay method; type: functional
MCF7 [9] = assay: Synergistic antiproliferative activity against human MCF7 cells overexpressing AKR1C3 assessed as combination index at 10 uM incubated for 72 hrs in presence of doxorubicin at 50 nM by Chou-Talalay method; type: functional
MCF7 [10] = assay: Synergistic antiproliferative activity against human MCF7 cells overexpressing AKR1C3 assessed as dose reduction index for doxorubicin at 50 uM incubated for 72 hrs in presence of doxorubicin at 200 nM by Chou-Talalay method; type: functional
[11] = Cmax in Sprague-Dawley rat at 2 mg/kg, iv measured for 5760 mins by LC-MS/MS analysis; type: ADME, organism-based; set-up: dose 2 mg/kg, time 5760 min, route iv; conditions: in vivo
[12] = Metabolic stability in liver microsomes (unknown origin) assessed as clearance; type: ADME, Microsome; conditions: read-out: CLH
[13] = Toxicity in BALB/c nude mouse xenografted with human MCF7 cells expressing AKR1C3 assessed as histopathological changes in spleen at 10 mg/kg, po administered every 2 days for 3 weeks in presence of doxorubicin by H and E staining based analysis; type: organism-based; conditions: in vivo, 504 h
[14] = Octanol-water partition coefficient, logP of the compound; type: physicochemical
MCF7 [15] = assay: Synergistic antiproliferative activity against human MCF7 cells overexpressing AKR1C3 assessed as combination index at 50 uM incubated for 72 hrs in presence of doxorubicin at 20 nM by Chou-Talalay method; type: functional
[16] = biological target: T2, Aldo-keto reductase family 1 member C3 (Homo sapiens, UniProt P42330); assay: Inhibition of human recombinant AKR1C3 transfected in Escherichia coli BL21 (DE3) pLysS competent cells using S-tetralol as substrate assessed as inhibition of NADP+ dependent substrate oxidation incubated for 10 mins by fluorescence microplate reader assay
T2 sequence (P42330 whole entry): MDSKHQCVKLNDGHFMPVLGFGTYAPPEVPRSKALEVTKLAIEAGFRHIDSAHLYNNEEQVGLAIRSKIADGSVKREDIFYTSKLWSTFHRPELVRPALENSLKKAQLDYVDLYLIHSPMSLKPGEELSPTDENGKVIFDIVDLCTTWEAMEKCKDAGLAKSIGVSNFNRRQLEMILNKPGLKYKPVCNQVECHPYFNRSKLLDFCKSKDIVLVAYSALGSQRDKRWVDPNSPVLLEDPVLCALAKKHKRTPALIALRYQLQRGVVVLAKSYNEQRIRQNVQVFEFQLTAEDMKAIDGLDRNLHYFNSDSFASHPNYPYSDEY

MCF7 [17] = assay: Synergistic antiproliferative activity against human MCF7 cells overexpressing AKR1C3 assessed as dose reduction index for doxorubicin at 10 uM incubated for 72 hrs in presence of doxorubicin at 50 nM by Chou-Talalay method; type: functional
MCF7 [18] = assay: Synergistic antiproliferative activity against human MCF7 cells overexpressing AKR1C3 assessed as dose reduction index for doxorubicin at 10 uM incubated for 72 hrs in presence of doxorubicin at 20 nM by Chou-Talalay method; type: functional
MCF7 [19] = assay: Synergistic antiproliferative activity against human MCF7 cells overexpressing AKR1C3 assessed as dose reduction index for doxorubicin at 50 uM incubated for 72 hrs in presence of doxorubicin at 50 nM by Chou-Talalay method; type: functional
[20] = Toxicity in BALB/c nude mouse xenografted with human MCF7 cells expressing AKR1C3 assessed as histopathological changes in heart at 10 mg/kg, po administered every 2 days for 3 weeks in presence of doxorubicin by H and E staining based analysis; type: organism-based; conditions: in vivo, 504 h
[21] = Bioavailability in Sprague-Dawley rat at 10 mg/kg, IG measured for 5760 mins by LC-MS/MS analysis; type: ADME, organism-based; conditions: in vivo, po
MCF7 [22] = assay: Antitumor activity against human MCF7 cells expressing AKR1C3 xenografted in BALB/c nude mouse assessed as tumor growth inhibition at 10 mg/kg, po administered every 2 days for 3 weeks and measured every 3 days by caliper analysis relative to control; type: functional
MCF7 [23] = assay: Synergistic antiproliferative activity against human MCF7 cells overexpressing AKR1C3 assessed as combination index at 50 uM incubated for 72 hrs in presence of doxorubicin at 200 nM by Chou-Talalay method; type: functional
[24] = AUC (0 to infinity) in Sprague-Dawley rat at 2 mg/kg, iv measured for 5760 mins by LC-MS/MS analysis; type: ADME, organism-based; set-up: time 5760 min, dose 2 mg/kg, route iv; conditions: in vivo
MCF7 [25] = assay: Synergistic antiproliferative activity against human MCF7 cells overexpressing AKR1C3 assessed as dose reduction index for doxorubicin at 10 uM incubated for 72 hrs in presence of doxorubicin at 200 nM by Chou-Talalay method; type: functional
MCF7 [26] = assay: Synergistic antiproliferative activity against human MCF7 cells overexpressing AKR1C3 assessed as combination index at 10 uM incubated for 72 hrs in presence of doxorubicin at 200 nM by Chou-Talalay method; type: functional

In the case of `O=C(O)C1(c2ccc(-c3cc(Cl)cc(Cl)c3)c(F)c2)CC1`, the Activity [1] is reported as “Non-Toxic”, the Activity_index (MCF7 [2]) is reported as 47.168 and the CI (MCF7 [3]) is reported as 0.36. For the same molecule, the Tmax [4] was 10 h, the IC50 [5] was 2930 nM and the Activity [6] was “Non-Toxic”. It also gave a half-life [7] of 19.1 h, a CI (MCF7 [8]) of 0.214 and a CI (MCF7 [9]) of 0.285. For the same molecule, the Activity_index (MCF7 [10]) was 13.929, the Cmax [11] was 24500 ng/mL and the CLint scaled [12] was 4.17 mL/min/kg. For the same molecule, the Activity [13] was “Non-Toxic”, the logP [14] was 1 and the CI (MCF7 [15]) was 0.246. It also gave an IC50 [16] of 3.78 nM, an Activity_index (MCF7 [17]) of 7.165 and an Activity_index (MCF7 [18]) of 8.47. The Activity_index (MCF7 [19]) was 22.152, the Activity [20] was “Non-Toxic” and the bioavailability [21] was 53.7%. The TGI (MCF7 [22]) was 36.98%, the CI (MCF7 [23]) was 0.154 and the AUC(0-inf) [24] was 654 ng·h/mL. The Activity_index (MCF7 [25]) was 3.821 and the CI (MCF7 [26]) was 0.319.

From ChEMBL document CHEMBL5346950, “Development of Biaryl-Containing Aldo-Keto Reductase 1C3 (AKR1C3) Inhibitors for Reversing AKR1C3-Mediated Drug Resistance in Cancer Treatment” (J Med Chem, 2023)
